In ChEMBL document CHEMBL3797053, “2-Alkoxy-3-(sulfonylarylaminomethylene)-chroman-4-ones as potent and selective inhibitors of ectonucleotidases” (Eur J Med Chem, 2016):
Calls of active or inactive are those of the source. The rule behind the calls is not given here.

Tests used:
5'-nucleotidase [1] = molecular target: T1, 5'-nucleotidase (Rattus norvegicus, UniProt P21588); assay: Inhibition of rat Ecto-5'-nucleotidase transfected in COS7 cells preincubated for 10 mins followed by AMP addition measured after 10 mins; type: cell-based, COS-7
T1 sequence (P21588 whole entry): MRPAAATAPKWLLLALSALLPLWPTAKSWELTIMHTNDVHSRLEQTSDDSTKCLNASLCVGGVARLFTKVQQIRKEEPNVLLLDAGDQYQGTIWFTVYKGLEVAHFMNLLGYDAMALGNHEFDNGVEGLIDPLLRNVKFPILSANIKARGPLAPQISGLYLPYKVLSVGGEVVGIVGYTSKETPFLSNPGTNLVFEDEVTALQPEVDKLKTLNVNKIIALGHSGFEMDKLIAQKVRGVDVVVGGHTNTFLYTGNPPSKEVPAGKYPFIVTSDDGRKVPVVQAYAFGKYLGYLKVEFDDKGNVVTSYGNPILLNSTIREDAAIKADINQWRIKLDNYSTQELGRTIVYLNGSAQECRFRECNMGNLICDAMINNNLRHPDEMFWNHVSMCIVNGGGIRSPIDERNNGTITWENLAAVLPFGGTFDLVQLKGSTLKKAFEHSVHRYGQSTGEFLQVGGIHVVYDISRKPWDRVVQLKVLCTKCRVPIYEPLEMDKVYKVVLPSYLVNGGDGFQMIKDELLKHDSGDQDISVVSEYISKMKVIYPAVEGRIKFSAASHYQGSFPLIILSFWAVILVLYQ

[2] = molecular target: T2, Alkaline phosphatase, tissue-nonspecific isozyme (Bos taurus, UniProt P09487); assay: Inhibition of bovine tissue non-specific alkaline phosphatase preincubated for 3 to 5 mins followed by CDP-star substrate addition measured after 15 mins by luminescence assay
T2 sequence (P09487 whole entry): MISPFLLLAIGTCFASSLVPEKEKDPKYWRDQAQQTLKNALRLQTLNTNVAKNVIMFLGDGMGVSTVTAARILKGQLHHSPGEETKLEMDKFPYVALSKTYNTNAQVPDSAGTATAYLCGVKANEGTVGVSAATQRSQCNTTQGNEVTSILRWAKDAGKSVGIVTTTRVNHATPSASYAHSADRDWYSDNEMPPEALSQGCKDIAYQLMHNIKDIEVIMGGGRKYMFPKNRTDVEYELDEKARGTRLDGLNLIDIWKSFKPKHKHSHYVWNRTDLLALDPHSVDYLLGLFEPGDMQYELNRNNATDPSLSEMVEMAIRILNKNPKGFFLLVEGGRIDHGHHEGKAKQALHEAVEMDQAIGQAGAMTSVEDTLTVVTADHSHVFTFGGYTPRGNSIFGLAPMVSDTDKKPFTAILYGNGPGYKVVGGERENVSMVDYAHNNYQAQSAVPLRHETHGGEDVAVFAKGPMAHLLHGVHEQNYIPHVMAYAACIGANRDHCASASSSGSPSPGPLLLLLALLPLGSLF

[3] = molecular target: T3, Alkaline phosphatase, tissue-nonspecific isozyme (Bos taurus) (UniProt P09487); assay: Competitive inhibition of bovine tissue non-specific alkaline phosphatase at 0.5 to 2 uM preincubated for 3 to 5 mins followed by CDP-star substrate addition measured after 15 mins by double-reciprocal plot analysis
T3 sequence (whole entry): T2 sequence (P09487 whole entry)

[4] = molecular target: Intestinal-type alkaline phosphatase (Bos taurus, UniProt P19111); assay: Inhibition of calf intestinal alkaline phosphatase preincubated for 3 to 5 mins followed by CDP-star substrate addition measured after 15 mins by luminescence assay
Chain of Intestinal-type alkaline phosphatase (P19111 whole entry): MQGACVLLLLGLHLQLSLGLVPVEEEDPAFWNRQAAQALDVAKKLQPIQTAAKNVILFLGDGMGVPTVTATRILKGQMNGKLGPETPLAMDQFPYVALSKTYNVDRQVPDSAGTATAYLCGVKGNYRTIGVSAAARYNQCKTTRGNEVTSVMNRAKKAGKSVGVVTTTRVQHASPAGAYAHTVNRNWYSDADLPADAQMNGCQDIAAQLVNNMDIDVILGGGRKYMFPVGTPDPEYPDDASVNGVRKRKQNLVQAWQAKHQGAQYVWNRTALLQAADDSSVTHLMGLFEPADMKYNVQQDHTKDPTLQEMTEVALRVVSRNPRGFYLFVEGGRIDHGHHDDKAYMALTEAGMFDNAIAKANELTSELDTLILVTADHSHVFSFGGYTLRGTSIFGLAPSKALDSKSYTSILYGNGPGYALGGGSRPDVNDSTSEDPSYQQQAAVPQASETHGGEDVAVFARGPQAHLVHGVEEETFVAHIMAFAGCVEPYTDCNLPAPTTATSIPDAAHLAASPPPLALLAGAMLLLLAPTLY

5'-nucleotidase [5] = molecular target: T4, 5'-nucleotidase (Homo sapiens, UniProt P21589); assay: Inhibition of human Ecto-5'-nucleotidase transfected in COS7 cells at 1 mM preincubated for 10 mins followed by AMP addition measured after 10 mins; type: cell-based; conditions: COS-7
T4 sequence (P21589 whole entry): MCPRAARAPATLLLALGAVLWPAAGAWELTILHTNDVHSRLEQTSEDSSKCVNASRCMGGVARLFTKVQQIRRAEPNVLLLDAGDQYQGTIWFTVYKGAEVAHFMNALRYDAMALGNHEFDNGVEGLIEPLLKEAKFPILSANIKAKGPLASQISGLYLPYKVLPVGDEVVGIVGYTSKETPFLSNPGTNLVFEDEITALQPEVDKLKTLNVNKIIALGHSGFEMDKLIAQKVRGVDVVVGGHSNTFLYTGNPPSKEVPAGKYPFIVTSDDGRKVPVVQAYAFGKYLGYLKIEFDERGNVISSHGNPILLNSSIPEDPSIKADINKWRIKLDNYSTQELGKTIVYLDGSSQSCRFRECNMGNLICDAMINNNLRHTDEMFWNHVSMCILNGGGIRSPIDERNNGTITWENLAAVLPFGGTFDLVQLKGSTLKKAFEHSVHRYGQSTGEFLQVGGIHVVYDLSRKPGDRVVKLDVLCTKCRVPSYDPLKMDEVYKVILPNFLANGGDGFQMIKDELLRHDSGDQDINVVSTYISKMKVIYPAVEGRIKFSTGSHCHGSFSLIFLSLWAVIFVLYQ

Bos taurus = species on record: Bos taurus; assay: Selectivity ratio of Ki for calf intestinal alkaline phosphatase to Ki for bovine tissue non-specific alkaline phosphatase
[6] = molecular target: T5, 5'-nucleotidase (Rattus norvegicus) (UniProt P21588); assay: Inhibition of rat Ecto-5'-nucleotidase transfected in COS7 cells at 1 mM preincubated for 10 mins followed by AMP addition measured after 10 mins; type: cell-based; conditions: COS-7
T5 sequence (whole entry): T1 sequence (P21588 whole entry)

[7] = molecular target: T3, Alkaline phosphatase, tissue-nonspecific isozyme (Bos taurus); assay: Inhibition of bovine tissue non-specific alkaline phosphatase at 0.2 mM preincubated for 3 to 5 mins followed by CDP-star substrate addition measured after 15 mins by luminescence assay
5'-nucleotidase [8] = molecular target: T4, 5'-nucleotidase; assay: Inhibition of human Ecto-5'-nucleotidase transfected in COS7 cells preincubated for 10 mins followed by AMP addition measured after 10 mins; type: cell-based, COS-7
5'-nucleotidase [9] = molecular target: T4, 5'-nucleotidase; conditions: COS-7, 0.5 to 2 uM
[10] = molecular target: Intestinal-type alkaline phosphatase (Bos taurus) (UniProt P19111); conditions: 0.5 to 2 uM
Chain of Intestinal-type alkaline phosphatase (Bos taurus) (P19111 20-506 limits assumed): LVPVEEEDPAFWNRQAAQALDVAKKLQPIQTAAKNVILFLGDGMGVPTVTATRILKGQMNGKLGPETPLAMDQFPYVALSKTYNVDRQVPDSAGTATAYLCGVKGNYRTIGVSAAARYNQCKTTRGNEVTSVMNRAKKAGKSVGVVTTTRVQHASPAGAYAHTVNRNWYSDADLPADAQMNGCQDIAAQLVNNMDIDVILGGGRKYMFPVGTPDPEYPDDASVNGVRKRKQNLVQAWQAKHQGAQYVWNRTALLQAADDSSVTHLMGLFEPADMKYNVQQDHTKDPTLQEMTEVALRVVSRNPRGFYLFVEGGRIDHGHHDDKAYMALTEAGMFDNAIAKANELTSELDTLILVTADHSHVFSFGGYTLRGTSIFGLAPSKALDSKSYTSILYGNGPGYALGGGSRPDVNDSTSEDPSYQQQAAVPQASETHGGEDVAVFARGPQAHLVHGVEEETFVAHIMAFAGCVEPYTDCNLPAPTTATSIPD
Description: Competitive inhibition of calf intestinal alkaline phosphatase at 0.5 to 2 uM preincubated for 3 to 5 mins followed by CDP-star substrate addition measured after 15 mins by double-reciprocal plot analysis

Row | SMILES | IC50 (5'-nucleotidase [1]) [µM] | Ki (5'-nucleotidase [1]) [µM] | IC50 [2] [µM] | Ki [2] [µM] | IC50 [4] [µM] | Ki [4] [µM] | inhibition [6] [%] | IC50 (5'-nucleotidase [8]) [µM] | Ki (5'-nucleotidase [8]) [µM] | other results
1 | CCOC1Oc2ccc(F)cc2C(=O)/C1=C\Nc1ccc(S(N)(=O)=O)cc1 (racemic) | 2.13 | 0.101 | – | – | – | – | – | – | – | –
2 | CCOC1Oc2ccc(F)cc2C(=O)/C1=C\Nc1cccc(S(N)(=O)=O)c1 (racemic) | 0.99 | 0.047 | – | – | – | – | – | – | – | –
3 | O=c1c(C2Nc3ccccc3S(=O)(=O)N2)coc2ccccc12 (racemic) | 3.81 | 0.181 | – | – | – | – | – | – | – | –
4 | CCOC1Oc2c(Br)cc(Br)cc2C(=O)/C1=C\Nc1ccccc1S(N)(=O)=O (racemic) | 40.1 | 1.91 | – | – | – | – | – | – | – | –
5 | CCOC1Oc2ccccc2C(=O)/C1=C\Nc1ccc(S(=O)(=O)Nc2ccccn2)cc1 (racemic) | 15.2 | 0.712 | – | – | – | – | – | – | – | –
6 | COC1Oc2ccc(C)cc2C(=O)/C1=C\Nc1ccccc1S(N)(=O)=O (racemic) | – | – | 0.18 | 0.078 | 5.06 | 2.18 | 47.8 | – | – | inhibition [3]: Active; inhibition (5'-nucleotidase [5]): 39.1%; Ratio Ki (Bos taurus): 28
7 | COC1Oc2ccccc2C(=O)/C1=C\Nc1cccc(S(N)(=O)=O)c1 (racemic) | 2.81 | 0.134 | – | – | 39.8 | 16.9 | – | 0.38 | 0.018 | inhibition [7]: 32.1%
8 | CCOC1Oc2ccccc2C(=O)/C1=C\Nc1ccc(S(=O)(=O)Nc2ccc(OC)nn2)cc1 (racemic) | 1.09 | 0.0517 | – | – | – | – | – | – | – | –
9 | COC1Oc2ccc(F)cc2C(=O)/C1=C\Nc1ccc(S(N)(=O)=O)cc1 (racemic) | – | – | 17.6 | 7.51 | 68.6 | 29.1 | 46.4 | – | – | inhibition (5'-nucleotidase [5]): 46.8%
10 | COC1Oc2ccc(Cl)cc2C(=O)/C1=C\Nc1ccc(S(N)(=O)=O)cc1 (racemic) | 1.71 | 0.081 | – | – | 4.43 | 1.89 | – | 1.66 | 0.079 | inhibition [7]: 20.9%
11 | CC(C)OC1Oc2ccccc2C(=O)/C1=C\Nc1ccc(S(N)(=O)=O)cc1 (racemic) | 0.54 | 0.026 | 47.1 | 20.1 | 0.527 | 0.22 | – | 1.17 | 0.053 | –
12 | COC1Oc2ccc(C)cc2C(=O)/C1=C\Nc1cccc(S(N)(=O)=O)c1 (racemic) | – | – | 110 | 47.2 | 6.56 | 2.77 | 47.5 | – | – | inhibition (5'-nucleotidase [5]): 44.5%
13 | COC1Oc2c(Cl)cc(Cl)cc2C(=O)/C1=C\Nc1ccc(S(N)(=O)=O)cc1 (racemic) | 10.1 | 0.472 | 16.2 | 6.19 | 3.25 | 1.38 | – | 2.92 | 0.138 | –
14 | CC(C)OC1Oc2ccccc2C(=O)/C1=C\Nc1cccc(S(N)(=O)=O)c1 (racemic) | – | – | 111 | 47.5 | 17.9 | 7.66 | 25.7 | 0.287 | 0.014 | inhibition (5'-nucleotidase [9]): Active
15 | COC1Oc2ccc(Cl)cc2C(=O)/C1=C\Nc1cccc(S(N)(=O)=O)c1 (racemic) | 2.38 | 0.113 | – | – | 31.9 | 13.6 | – | 0.56 | 0.027 | inhibition [7]: 34.2%
16 | COC1Oc2c(Cl)cc(Cl)cc2C(=O)/C1=C\Nc1cccc(S(N)(=O)=O)c1 (racemic) | 4.81 | 0.229 | 3.52 | 1.49 | 8.34 | 3.59 | – | 0.97 | 0.046 | –
17 | CCOC1Oc2ccc(Br)cc2C(=O)/C1=C\Nc1ccc(S(=O)(=O)Nc2ccccn2)cc1 (racemic) | – | – | – | – | – | – | 23.6 | – | – | –
18 | CCOC1Oc2ccc(Br)cc2C(=O)/C1=C\Nc1ccc(S(N)(=O)=O)cc1 (racemic) | – | – | – | – | – | – | 29.7 | – | – | –
19 | CCOC1Oc2ccccc2C(=O)/C1=C\Nc1ccc(S(=O)(=O)Nc2cc(OC)nc(OC)n2)cc1 (racemic) | – | – | – | – | – | – | 28.2 | – | – | –
20 | CCOC1Oc2ccccc2C(=O)/C1=C\Nc1ccc(S(=O)(=O)Nc2nnc(C)s2)cc1 (racemic) | – | – | – | – | – | – | 48 | – | – | –
21 | CCOC1Oc2ccccc2C(=O)/C1=C\Nc1cccc(S(N)(=O)=O)c1 (racemic) | – | – | – | – | – | – | 30.1 | – | – | –
22 | O=c1c(C2Nc3ccccc3S(=O)(=O)N2)coc2ccc(Br)cc12 (racemic) | – | – | – | – | – | – | 20.3 | – | – | –

Continued, in another order:

Row | IC50 (5'-nucleotidase [1]) [µM] | Ki (5'-nucleotidase [1]) [µM] | IC50 [2] [µM] | Ki [2] [µM] | IC50 [4] [µM] | Ki [4] [µM] | inhibition [6] [%] | IC50 (5'-nucleotidase [8]) [µM] | Ki (5'-nucleotidase [8]) [µM] | SMILES | other results
23 | 3.73 | 0.178 | – | – | – | – | – | – | – | CCOC1Oc2ccc(CC)cc2C(=O)/C1=C\Nc1ccc(S(N)(=O)=O)cc1 (racemic) | –
24 | 6.13 | 0.292 | – | – | – | – | – | – | – | CCOC1Oc2ccc(Br)cc2C(=O)/C1=C\Nc1cccc(S(N)(=O)=O)c1 (racemic) | –
25 | 2.71 | 0.129 | – | – | – | – | – | – | – | O=c1c(C2Nc3ccccc3S(=O)(=O)N2)coc2ccc(F)cc12 (racemic) | –
26 | 0.101 | 0.0047 | – | – | – | – | – | – | – | CCOC1Oc2ccc(CC)cc2C(=O)/C1=C\Nc1ccccc1S(N)(=O)=O (racemic) | –
27 | – | – | 1.46 | 0.623 | 13.5 | 5.66 | 46 | – | – | COC1Oc2ccc(F)cc2C(=O)/C1=C\Nc1cccc(S(N)(=O)=O)c1 (racemic) | inhibition (5'-nucleotidase [5]): 44.4%
28 | – | – | 8.17 | 3.49 | 3.13 | 1.34 | 42.9 | – | – | COC1Oc2ccc(C)cc2C(=O)/C1=C\Nc1ccc(S(N)(=O)=O)cc1 (racemic) | inhibition (5'-nucleotidase [5]): 47%
29 | – | – | 17.1 | 7.29 | 10.2 | 4.26 | 45.4 | – | – | COC1Oc2ccc(F)cc2C(=O)/C1=C\Nc1ccccc1S(N)(=O)=O (racemic) | inhibition (5'-nucleotidase [5]): 48.2%
30 | 3.61 | 0.172 | 77.8 | 33.2 | 2.29 | 0.978 | – | 0.377 | 0.018 | CCCCOC1Oc2ccccc2C(=O)/C1=C\Nc1cccc(S(N)(=O)=O)c1 (racemic) | –
31 | 1.31 | 0.062 | – | – | 2.32 | 0.992 | – | 1.35 | 0.064 | COC1Oc2ccc(Cl)cc2C(=O)/C1=C\Nc1ccccc1S(N)(=O)=O (racemic) | inhibition [7]: 29.9%
32 | 2.39 | 0.114 | 715 | 305 | 7.81 | 3.34 | – | 1.91 | 0.091 | COC1Oc2ccccc2C(=O)/C1=C\Nc1ccccc1S(N)(=O)=O (racemic) | –
33 | – | – | 171 | 72.9 | 0.565 | 0.24 | 27.7 | 7.11 | 0.338 | COC1Oc2ccccc2C(=O)/C1=C\Nc1ccc(S(N)(=O)=O)cc1 (racemic) | inhibition [10]: Active
34 | 1.84 | 0.087 | 5.36 | 2.28 | 9.87 | 4.21 | – | 0.88 | 0.042 | COC1Oc2c(Cl)cc(Cl)cc2C(=O)/C1=C\Nc1ccccc1S(N)(=O)=O (racemic) | –
35 | – | – | 4.57 | 1.95 | 48.3 | 20.6 | 6.66 | 1.32 | 0.063 | CCCCOC1Oc2ccccc2C(=O)/C1=C\Nc1ccc(S(N)(=O)=O)cc1 (racemic) | –
36 | – | – | – | – | – | – | 40.5 | – | – | CCOC1Oc2ccc(CC)cc2C(=O)/C1=C\Nc1cccc(S(N)(=O)=O)c1 (racemic) | –
37 | – | – | – | – | – | – | 39.5 | – | – | CCOC1Oc2ccccc2C(=O)/C1=C\Nc1ccc(S(N)(=O)=O)cc1 (racemic) | –
